# How the values were obtained:
# [1] = target: T1, α1β3γ2 GABAA receptor, γ2F457S variant (Homo sapiens, UniProt P14867+P18507+P28472, F457S); experiment: Automated patch clamp of GABA-elicited currents (SyncroPatch 384PE), γ2F457S; assay type: cell-based; conditions: mean
# T1 construct: expressed in transfected cells; host or cells: HEK293T
# T1 sequence (P14867 28-456): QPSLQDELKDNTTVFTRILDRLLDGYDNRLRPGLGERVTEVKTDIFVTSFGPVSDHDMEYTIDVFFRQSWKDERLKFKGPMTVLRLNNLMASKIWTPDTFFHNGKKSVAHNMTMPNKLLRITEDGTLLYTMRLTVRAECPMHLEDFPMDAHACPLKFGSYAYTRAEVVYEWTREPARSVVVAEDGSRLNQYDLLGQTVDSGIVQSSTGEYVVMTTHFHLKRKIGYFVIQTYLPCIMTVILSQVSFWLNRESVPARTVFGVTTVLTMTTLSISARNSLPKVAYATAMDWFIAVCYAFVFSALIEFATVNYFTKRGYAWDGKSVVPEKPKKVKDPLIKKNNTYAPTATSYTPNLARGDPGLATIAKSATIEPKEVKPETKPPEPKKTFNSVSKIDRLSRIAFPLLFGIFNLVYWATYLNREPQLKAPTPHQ
# T1 sequence (P28472 26-473 isoform P28472-2): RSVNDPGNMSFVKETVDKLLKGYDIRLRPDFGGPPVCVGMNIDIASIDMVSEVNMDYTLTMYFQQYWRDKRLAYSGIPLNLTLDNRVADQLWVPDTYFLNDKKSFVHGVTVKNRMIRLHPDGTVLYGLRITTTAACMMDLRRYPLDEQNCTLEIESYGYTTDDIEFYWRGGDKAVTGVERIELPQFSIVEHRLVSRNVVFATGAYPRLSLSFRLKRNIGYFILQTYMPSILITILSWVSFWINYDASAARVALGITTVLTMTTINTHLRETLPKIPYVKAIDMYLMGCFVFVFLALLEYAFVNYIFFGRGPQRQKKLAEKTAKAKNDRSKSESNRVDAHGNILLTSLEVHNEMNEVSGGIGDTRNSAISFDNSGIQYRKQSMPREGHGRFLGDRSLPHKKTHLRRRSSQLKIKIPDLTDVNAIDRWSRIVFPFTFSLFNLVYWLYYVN
# T1 sequence (P18507 40-475 F457S): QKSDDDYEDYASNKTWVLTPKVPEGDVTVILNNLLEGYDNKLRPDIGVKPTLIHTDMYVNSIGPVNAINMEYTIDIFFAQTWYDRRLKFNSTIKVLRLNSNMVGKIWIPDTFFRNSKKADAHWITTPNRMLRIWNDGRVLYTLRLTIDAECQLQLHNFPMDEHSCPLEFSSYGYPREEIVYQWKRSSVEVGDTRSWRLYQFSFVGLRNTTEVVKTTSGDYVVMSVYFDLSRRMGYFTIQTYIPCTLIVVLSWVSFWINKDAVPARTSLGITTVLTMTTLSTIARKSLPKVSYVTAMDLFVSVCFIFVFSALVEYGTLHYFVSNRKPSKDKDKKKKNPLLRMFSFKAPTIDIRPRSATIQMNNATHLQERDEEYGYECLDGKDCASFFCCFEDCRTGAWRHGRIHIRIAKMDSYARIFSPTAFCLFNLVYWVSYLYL
# Description: (§1) The coding sequences of human α1 (GABRA1, NM_000806), β3 (GABRB3, NM_021912), and γ2 (GABRG2, NM_198904.2) GABAAR subunits were subcloned into the pcDNA3.1 expression vectors (Invitrogen, Waltham, MA, USA).
# (§2) HEK293T cells (ATCC, CRL-11268) were cultured at 37 °C in a humidified 5% CO2 incubator and maintained in Dulbecco’s modified Eagle’s medium (Invitrogen) supplemented with 10% fetal bovine serum (Life Technologies, Carlsbad, CA, USA), and 100 IU/mL of penicillin/streptomycin (Life Technologies). For the expression experiments, 4 × 10^5 cells were transfected using polyethylenimine (PEI) reagent (40 kD, Polysciences, Warrington, PA, USA) at a DNA: to transfection reagent ratio of 1:2.5 and harvested 36 h after transfection. To express WT and variant α1β3γ2 receptors, a total of 3 µg of α1, β3, and γ2 (WT or mutant) subunit cDNAs were transfected at a ratio of 1:1:1 into 60 mm culture dishes. For the mock-transfected condition, an empty pcDNA3.1 vector was added for a final cDNA transfection amount of 3 μg. For the electrophysiology experiments, 2.5 × 10^5 cells were plated in 100 mm culture dishes and transfected after 24 h with 3 μg of cDNA of each α1, β3, γ2 (wild-type or mutant) subunit, using X-tremeGENE HP DNA transfection Reagent (Roche Diagnostics, Basel, Switzerland), following the manufacturer’s protocol. Recordings were obtained forty-eight hours after transfection.
# (§3) Whole-cell patch clamp recordings were conducted according to the manufacturer’s standard procedure for the SyncroPatch 384 [31]. Whole-cell voltage-clamp recordings were performed at room temperature on HEK293T cells 48 h after transfection with GABAAR subunits, using the SyncroPatch 384PE (Nanion Technologies, Munich, Germany). Cells, at a concentration of 400,000 cells/mL, were harvested in suspension in external solution containing 140 mM of NaCl, 2 mM of CaCl2, 4 mM of KCl, 1 mM of MgCl2, 5 mM of glucose, and 10 mM of HEPES (pH 7.4 with NaOH, 298 mOsm). The cells were loaded in a multi-hole (4 holes per well) 384-well Nanion patch clamp (NPC) chip with a thick borosilicate glass bottom and an average resistance pore size of […]. Built-in electrophysiological protocols were used, and the data were digitized using PatchControl 384 (Nanion Technologies) application. Using PatchControl 384, electrophysiological parameters, such as seal resistance, capacitance, and series resistance, were determined for each well after the application of a test pulse, and subsequently monitored over time. […] The currents were normalized to the maximal response of each well, and the concentration–response curves were calculated from single-point additions. The EC50 values for each variant or wild-type receptor were calculated across multiple wells for each experimental condition.
# [2] = target: T2, α1β3γ2 GABAA receptor, wild-type (WT) γ2 subunit (Homo sapiens, UniProt P14867+P28472); experiment: Automated patch clamp of GABA-elicited currents (SyncroPatch 384PE), WT receptor; assay type: cell-based; conditions: mean
# T2 construct: expressed in transfected cells; host or cells: HEK293T
# Description: as §1, §2, §3
# [3] = 1 mM GABA for 5 ms, HEK293T, -80 mV
# [4] = 10–90% rise time, 1 mM GABA for 5 ms, HEK293T
# T2 sequence (P18507 40-475 partner, one chain of several): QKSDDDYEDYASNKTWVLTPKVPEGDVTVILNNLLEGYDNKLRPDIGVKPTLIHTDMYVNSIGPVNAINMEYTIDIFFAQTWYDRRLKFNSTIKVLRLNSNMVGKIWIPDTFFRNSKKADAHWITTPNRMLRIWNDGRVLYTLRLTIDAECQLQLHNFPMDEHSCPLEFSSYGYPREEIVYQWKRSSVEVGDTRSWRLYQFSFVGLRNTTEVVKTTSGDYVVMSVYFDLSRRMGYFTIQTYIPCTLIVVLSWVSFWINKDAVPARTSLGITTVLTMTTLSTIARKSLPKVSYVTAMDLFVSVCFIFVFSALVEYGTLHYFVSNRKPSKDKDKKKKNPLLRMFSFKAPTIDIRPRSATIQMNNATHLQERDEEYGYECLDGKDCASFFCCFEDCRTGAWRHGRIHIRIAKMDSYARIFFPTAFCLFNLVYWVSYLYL
smiles,measurement,setting,value
"NCCCC(=O)O [GABA, γ-aminobutyric acid]",Deactivation,[1]; [3],224.8 ms
same,IMAX (maximal GABA-evoked peak current),"[1]; 1 mM GABA for 5 ms, HEK293T",0.44 nA
same,IMAX variant/IMAX WT,[1]; 1 mM GABA,21.96%
same,Rise Time,[1]; [4],60.51 ms
same,Deactivation,[2]; [3],199.9 ms
same,IMAX (maximal GABA-evoked peak current),"[2]; 1 mM GABA for 5 ms, HEK293T",2.00 nA
same,IMAX variant/IMAX WT,[2]; 1 mM GABA,100.00%
same,Rise Time,[2]; [4],13.67 ms

# Reference: publication PMC10046037, “GABRG2 Variants Associated with Febrile Seizures” (Biomolecules, 2023)
